Data on two compounds can be found in US8022103B2, “Ester prodrugs of prostratin and related phorbol compounds” (Salvia Sciences, Inc., priority 2005, dated 2011).

Series [1] can be described thus: Solubility in pH controlled solutions and intravenous formulations. The class given is physicochemical. On the procedure:
Solubility of prostratin and SA-101B was measured in pH controlled solutions and in various representative formulations, in particular, intravenous formulations, where solubility is often a limiting factor.

For a further series, the system named is CEM-SS cells. Description: MTS cell viability in CEM-SS cells (cytotoxicity). Particulars: for TC50: MTS; for Cytotoxicity: at the concentrations evaluated. The class given is cell-based. The procedure: Cell Preparation. CEM-SS cells were passaged in T-75 flasks prior to use in the antiviral assay. On the day preceding the assay, the cells were split 1:2 to assure they were in an exponential growth phase at the time of infection. Total cell and viability quantification was performed using a hemacytometer and trypan blue exclusion. Cell viability was greater than 95% for the cells to be utilized in the assay. The cells were resuspended at 5×10^4 cells/ml in tissue culture medium and added to the drug-containing microliter plates in a volume of 50 μl.
MTS Staining for Cell Viability. At assay termination, the assay plates were stained with the soluble tetrazolium-based dye MTS (Cell Titer Reagent Promega) to determine cell viability and quantify compound toxicity. At termination of the assay, 20 μL of MTS reagent was added per well. The microtiter plates were then incubated 4 6 hrs at 37° C. Adhesive plate sealers were used in place of the lids, the sealed plate was inverted several times to mix the soluble formazan product and the plate was read spectrophotometrically at 490/650 ηm with a Molecular Devices Vmax plate reader.
Data Analysis. Using an in-house computer program, IC50 (50%, inhibition of virus replication), IC95 (95%, inhibition of virus replication), TC50 (50% reduction in cell viability), TC95 (95% reduction in cell viability), and a therapeutic index (TI=TC50/IC50) were determined.

Another series relates to HepG2-2.2.15 cells. Description: Dye uptake cell viability in HepG2-2.2.15 cells. It counts as cell-based. Particulars: at the concentrations evaluated. On the procedure: HepG2 2.2.15 Antiviral Assay. The assay developed is similar to that described ion the literature (Korba et al., 1991, Antiviral Res. 15: 217-228; Korba et al., 1992, Antiviral Res. 19: 55-70) with the exception that viral DNA detection and quantification have been improved and simplified (Buckwold et al., 2004, Antiviral Res. 61(1): 57-62). Briefly, HepG2-2.2.15 cells are plated in 96-well microtiter plates. Only the interior wells are utilized to reduce “edge effects” observed during cell culture; the exterior wells are filled with complete medium to help minimize sample evaporation. After 16-24 hours the confluent monolayer of HepG2-2.2.15 cells is washed and the medium is replaced with complete medium containing various concentrations of a test compound in triplicate. […] Six days following the initial administration of the test compound, the cell culture supernatant is collected, treated with pronase and DNAse and then used in a real-time quantitative TaqMan PCR assay. The PCR-amplified HBV DNA is detected in real-time by monitoring increases in fluorescence signals that result from the exonucleolytic degradation of a quenched fluorescent probe molecule that hybridizes to the amplified HBV DNA. […] Antiviral activity is calculated from the reduction in HBV DNA levels (IC50). […] The therapeutic index (TI) is calculated as TC50/IC50.

A further series deals with HCV RNA replicon. Description: HCV RNA replicon luciferase assay. It counts as cell-based. On the procedure: Compounds SA-101A and SA-101B were evaluated for their effect on HCV RNA replicons using an in vitro HCV virus replication system.
Compound preparation. Compounds were prepared as a powder (˜1 mg) and solubilized in DMSO. IFNα was used as a positive antiviral control.
HCV RNA replicon system. The assay for HCV replication employed cell line ET (luc-ubi-neo/ET), which is a human Huh7 hepatoma cell line that contains an HCV RNA replicon with a stable luciferase (Luc) reporter and three cell culture-adaptive mutations (Pietschmann et al., 2002, J. Virol. 76:4008-4021). […]
Luciferase assay. […] Compound IC50 and IC90 values (antiviral activity) are derived from plots of HCV RNA levels assessed as HCV RNA replicon-derived Luc activity versus drug concentration using Steady-Glo assay reagent (Promega), with Luc luminescence read on a 1450 Microbeta liquid scintillation and luminescence counter. Compound TC50 and TC90 values (cytotoxicity) are calculated from plots of cell number vs. drug concentration using data from the CytoTox-ONE cell proliferation assay (Promega); with fluorescence read using an Analyst HT fluorometer. […] Compound selectivity indices (SI=TC/IC) SI50 and SI90 values are calculated from spreadsheets.
For orientation: Replicon systems follow genome replication, usually without infectious particles.

For series [2], the system named is cell line ET (luc-ubi-neo/ET), human Huh7 hepatoma. Description: CytoTox-ONE cytotoxicity in ET (luc-ubi-neo/ET) Huh7 cells. It counts as cell-based. On the procedure: Luciferase assay. The ET cell line is grown in Dulbecco's modified essential media (DMEM), 10% fetal bovine serum (FBS), 1% penicillin-streptomycin (pen-strep), 1% glutamine, […] G418 in a 5% CO2 incubator at 37° C. All cell culture reagents are from Gibco Life Technologies. Cells are trypsinized (1% trypsin:EDTA) and plated out at 5×10^3 cells/well in white 96-well assay plates (Costar) dedicated to cell number (cytotoxicity) or antiviral activity (Luc) assessments. Drugs are added at five half-log concentrations each and the assay is run in DMEM, 5% FBS, 1% pen-strep, 1% glutamine. Human interferon alpha-2b (PBL Biolabs, New Brunswick, N.J.) is included in each run as a positive control compound. […] Compound IC50 and IC90 values (antiviral activity) are derived from plots of HCV RNA levels assessed as HCV RNA replicon-derived Luc activity versus drug concentration using Steady-Glo assay reagent (Promega), with Luc luminescence read on a 1450 Microbeta liquid scintillation and luminescence counter. Compound TC50 and TC90 values (cytotoxicity) are calculated from plots of cell number vs. drug concentration using data from the CytoTox-ONE cell proliferation assay (Promega); with fluorescence read using an Analyst HT fluorometer. […] Compound selectivity indices (SI=TC/IC) SI50 and SI90 values are calculated from spreadsheets.

≈ marks a conversion by molar mass, not a printed value. Like-named read-outs stand apart in the source and are kept apart here.

As for `CC(=O)O[C@@]12C[C@@H](C)[C@@]3(O)[C@@H](C=C(CO)C[C@]4(O)C(=O)C(C)=C[C@@H]34)[C@@H]1C2(C)C` [SA-101A, 12-deoxyphorbol 13-acetate], the solubility – broadly, how much of the substance goes into solution per volume – is 330 µg/mL (≈ 845 µM) in series [1] (5% dextrose (intravenous formulation), saline or isotonic, read-out: Solubility 5% Dextrose); 370 µg/mL (≈ 948 µM) in series [1] (pH controlled solution, pH 1, simulated gastric fluid, read-out: Solubility pH 1); 370 µg/mL (≈ 948 µM) in series [1] (pH controlled solution, pH 2, simulated gastric fluid, read-out: Solubility pH 2); 450 µg/mL (≈ 1150 µM) in series [1] (pH controlled solution, pH 5, aqueous buffer, read-out: Solubility pH 5); 420 µg/mL (≈ 1080 µM) in series [1] (pH controlled solution, pH 7.5, aqueous buffer, read-out: Solubility pH 7.5); 390 µg/mL (≈ 999 µM) in series [1] (pH controlled solution, pH 9, aqueous buffer, read-out: Solubility pH 9). Also, in series [1] (saline (0.9% NaCl) (intravenous formulation), saline or isotonic, read-out: Solubility Saline (0.9% NaCl)), the solubility was 340 µg/mL (≈ 871 µM). Also, in the series on CEM-SS cells, the TC50 was >0.50 µg/mL. The Cytotoxicity entry in the series on CEM-SS cells is reported as “no cytotoxicity”; in the series with HepG2-2.2.15 cells, “no cytotoxicity”; in series [2] it was “did not appear to be active or cytotoxic”. Besides, the “Inhibition of HCV RNA replicon associated luciferase activity” value in the series with HCV RNA replicon (lowest concentrations employed in the assay) is “greater than 50%”.

Turning to `CC(=O)OC12CC(C)C3(O)C(C=C(COC(=O)CCC(=O)O)CC4(O)C(=O)C(C)=CC43)C1C2(C)C` (stereo not shown) [SA-101B, Prostratin Succinate], the “Solubility 5% Dextrose” value in series [1] (5% Dextrose) is >10000 µg/mL. Also, the “Solubility Saline (0.9% NaCl)” value in series [1] (Saline (0.9% NaCl)) was >10000 µg/mL. In series [1] (all media), the “Solubility compared with prostratin” value was “better solubility than prostratin”. The “Solubility pH 1” value in series [1] (pH 1) was 1.21 mg/mL. Further, the “Solubility pH 2” value in series [1] (pH 2) was 4.46 mg/mL. For the same compound, the “Solubility pH 5” value in series [1] (pH 5) is 7.72 mg/mL. For the same compound, the “Solubility pH 7.5” value in series [1] (pH 7.5) is listed as 11.20 mg/mL. For the same compound, the “Solubility pH 9” value in series [1] (pH 9) worked out at 12.08 mg/mL. The TC50 in the series on CEM-SS cells is >0.50 µg/mL. Also, the Cytotoxicity entry in the series on CEM-SS cells is “no cytotoxicity”; in the series on HepG2-2.2.15 cells, “no cytotoxicity”; in series [2], “did not display any appreciable cytotoxicity”. Besides, at HCV RNA replicon (ET cell line, luciferase, 72 hr), the “EC50 (HCV RNA replicon)” value is on record as “EC50 was not reached”.
